According to patent US12098416B2, “Assessment of biological contamination and biological contamination treatment” (Halliburton Energy Services, Inc., priority 2019, dated 2024):

Columns and labels:
[1] = system: SRB (sulfate reducing bacteria); assay: Biocide efficacy study on low TDS (1%) fluid sample, Rapid SRB Detection Pouches (thin-film culture device); assay type: cell-based; conditions: for reduction in SRB count: 24-hour biocide contact
Method: In this example, an assessment of biological contamination was performed using culture devices including indicator reagents. More specifically, SRB enumeration in various water samples including SRB was performed using thin-film culture devices (“pouches”). Three milliliters of two samples, Sample A and Sample B, were introduced into separate Rapid SRB Detection Pouches (manufactured by 3M™). The pouches were sealed and incubated at 32° C. The pouches were incubated upright to allow the precipitate to settle toward the bottom of pouch. The SRB count of each sample was measured at multiple time intervals using a visual technique where the color of the samples was compared to reference colors as shown in FIGS. 2A and 2B. The degree of blackening of the sample at certain time points compared to the reference is indicative of SRB count.
A biocide efficacy study on a low TDS (1%) fluid sample using a thin-film culture device was evaluated and compared to the traditional bug-bottle approach. The low TDS fluid sample was inoculated with mature SRB. Seventy-two 3 mL doses of the fluid sample were then introduced into 72 Rapid SRB Detection Pouches. […] The dosages were based on the standard US Environmental Protection Agency (EPA) recommendations for each respective biocide:
(§1) The fluid samples were then incubated at a temperature of 32° C. After approximately 24 hours of inoculation, the SRB count was measured using the incubation and referencing procedure of Example 1. The bug bottle numbers were determined by counting the number of bottles in a serial dilution which had formed a visible black precipitate.

[2] = system: SRB (sulfate reducing bacteria); assay: Biocide efficacy study on high TDS (10%) fluid sample, Rapid SRB Detection Pouches (thin-film culture device); assay type: cell-based; conditions: 4-hour biocide contact
Method: A biocide efficacy study on a high TDS (10%) fluid sample using a thin-film culture device was evaluated and compared to the traditional bug-bottle approach. The high TDS fluid sample was inoculated with mature SRB. Seventy-two 3 mL doses of the fluid sample were then introduced into 72 respective Rapid SRB Detection Pouches.
as §1

[3] = dose level not clearly singled out

## tetrakis(hydroxymethyl)phosphonium sulfate [THPS]
[1]; 4-hour biocide contact, low dose (THPS Low 25 ppm)
  reduction in SRB count in comparison to the control: all but the THPS Low biocide group demonstrated a reduction in SRB count
[1]; low dose (THPS Low 25 ppm)
  reduction in SRB count: all but the didecyldimethyl ammonium chloride and THPS low dose biocide groups demonstrated a reduction in SRB count
[2]; low dose (THPS Low 25 ppm)
  reduction in SRB count in comparison to the control: all but the Quat and THPS low dose biocide groups demonstrated a reduction in SRB count

## CCCCCCCCCC[N+](C)(C)CCCCCCCCCC.[Cl-] [Quat, didecyldimethyl ammonium chloride]
[1]; [3]
  reduction in SRB count: all but the didecyldimethyl ammonium chloride and THPS low dose biocide groups demonstrated a reduction in SRB count
[2]; [3]
  reduction in SRB count in comparison to the control: all but the Quat and THPS low dose biocide groups demonstrated a reduction in SRB count
